From patent US4399124A, “Peptides having immunostimulating properties and pharmaceutical compositions containing them” (Institut Pasteur, priority 1979, dated 1983)
Ends that are not written are not given here.

Legend:
Listeria monocytogenes = assay: Multiplication of Listeria monocytogenes in the liver and the spleen of treated mice; format: in vivo; settings: 0.5 ml of 10^-4 M i.v. 12 h before i.v. 0.3×10^5 Listeria; NaCl control 7 × 10^7 ± 2.4
Method: Mice in four batches of 4 animals were treated under the same conditions as previously. Twelve hours later, the mice were all inoculated, intravenously with 0.3×10^5 Listeria monocytogenes. The table below summarizes the results obtained. Again, the mice treated by the active principles show, in their spleen and especially in their liver, a number of Listeria up to 500 times smaller than in the liver of the control animals.

Salmonella typhimurium = assay: Blood purging of Salmonella typhimurium in treated mice; format: in vivo; settings: 0.5 ml of 10^-4 M i.v. 12 h before i.v. 2×10^7 Salmonella typhimurium; NaCl control 1.20 × 10^6 ± 0.28
Method: The increase in the bactericidal power of the macrophages always accompanying an increase in their ingestion capacities, it was sought to measure the latter with Salmonella typhimurium which necessitates for its phagocytosis, contrary to Listeria monocytogenes, opsonizing antibodies or a considerable stimulation of the hepatic macrophages. For this, the mice were treated under the same conditions as in the preceding experiment but were inoculated with 2×10^7 Salmonella typhimurium intravenously.

Lewis carcinoma (3LL) = assay: Resistance of treated mice to Lewis carcinoma (3LL); format: in vivo, C57B1/6 mice; settings: product injected 24 hours after inoculation; for Development of the tumor (difference in thickness between tumor paw and contralateral paw): 10^5 3LL cells into plantar pad, measured 9 days later, NaCl control 326 ± 34; for Number of pulmonary metastases: tumor paw amputated, autopsy 20 days after inoculation, NaCl control 5.3 ± 2.7
Method: This tumor is maintained in the laboratory as has been described (Fauve, R. M. and Hevin, B., Ann. Immunol. (Inst. Pasteur), 1977, 128C, 923-928). 3LL cells were cultured in Eagle medium supplemented with 15% of foetal calf serum and, after washing and resuspending in Eagle medium without serum, injected in the proportion of 10^5 cells in a volume of […] into the plantar pad of C57B1/6 mice. The difference between the thickness of the paw where the tumor is developed and the contralateral paw enables the development of the tumor to be evaluated.
In all cases, the products tested were injected 24 hours after inoculation of the malignant cells and, 9 days later, after having measured the thickness of the paws, the paw bearing the tumor was amputated and, 11 days later, namely 20 days after inoculation of the tumors, the animals were autopsied and the number of metastatic pumonary nodules counted. The following table summarizes the results obtained.

guinea pig ileon = settings: cited from earlier work

HPPGF [H5, Histidyl→prolyl→prolyl→glycyl→phenylalanine]
Number of Listeria monocytogenes in the spleen of mice 48 h after infection (Listeria monocytogenes): 2.4 × 10^7 ± 1.3
Number of Salmonella typhimurium per ml of blood 2 h after infection (Salmonella typhimurium): 7.15 × 10^4 ± 0.78 per ml of blood
Development of the tumor (difference in thickness between tumor paw and contralateral paw) (Lewis carcinoma (3LL)): 272 ± 41
Number of pulmonary metastases (Lewis carcinoma (3LL)): 0.5 ± 0.10

KPPGF [L5, Lysyl→prolyl→prolyl→glycyl→phenylalanine]
Number of Listeria monocytogenes in the spleen of mice 48 h after infection (Listeria monocytogenes): 1.8 × 10^7 ± 0.28
Number of Salmonella typhimurium per ml of blood 2 h after infection (Salmonella typhimurium): 9.35 × 10^4 ± 7.9 per ml of blood
Development of the tumor (difference in thickness between tumor paw and contralateral paw) (Lewis carcinoma (3LL)): 295 ± 25
Number of pulmonary metastases (Lewis carcinoma (3LL)): 3.7 ± 2

RPPGF [1-5, Arginyl→prolyl→prolyl→glycyl→phenylalanine]
Number of Listeria monocytogenes in the spleen of mice 48 h after infection (Listeria monocytogenes): 3.1 × 10^7 ± 1
Number of Salmonella typhimurium per ml of blood 2 h after infection (Salmonella typhimurium): 3.05 × 10^5 ± 1.6 per ml of blood
Development of the tumor (difference in thickness between tumor paw and contralateral paw) (Lewis carcinoma (3LL)): 284 ± 33
Number of pulmonary metastases (Lewis carcinoma (3LL)): 0.7 ± 0.11
Activity with respect to the guinea pig ileon (guinea pig ileon): totally inactive
